Literature values, collected in EP0436316A1, “X-ray contrast media for prolonged opacification” (Sovak, Milos, priority 1989, dated 1991).

System: peritoneal surface
Conditions: barium sulfate spilled into the abdomen after a perforation

SMILES: O=S(=O)([O-])[O-].[Ba+2] [barium sulfate]
- mortality rate of barium peritonitis: ~50%
